In this assay the target is HK68 (human A/H3N2 HA) (Influenza A virus (A/Hong Kong/1/1968(H3N2)), UniProt Q91MA7). In kind it is binding.
HK68 (human A/H3N2 HA) (Influenza A virus (A/Hong Kong/1/1968(H3N2)), UniProt Q91MA7), sequence (Q91MA7 17-530 limits assumed): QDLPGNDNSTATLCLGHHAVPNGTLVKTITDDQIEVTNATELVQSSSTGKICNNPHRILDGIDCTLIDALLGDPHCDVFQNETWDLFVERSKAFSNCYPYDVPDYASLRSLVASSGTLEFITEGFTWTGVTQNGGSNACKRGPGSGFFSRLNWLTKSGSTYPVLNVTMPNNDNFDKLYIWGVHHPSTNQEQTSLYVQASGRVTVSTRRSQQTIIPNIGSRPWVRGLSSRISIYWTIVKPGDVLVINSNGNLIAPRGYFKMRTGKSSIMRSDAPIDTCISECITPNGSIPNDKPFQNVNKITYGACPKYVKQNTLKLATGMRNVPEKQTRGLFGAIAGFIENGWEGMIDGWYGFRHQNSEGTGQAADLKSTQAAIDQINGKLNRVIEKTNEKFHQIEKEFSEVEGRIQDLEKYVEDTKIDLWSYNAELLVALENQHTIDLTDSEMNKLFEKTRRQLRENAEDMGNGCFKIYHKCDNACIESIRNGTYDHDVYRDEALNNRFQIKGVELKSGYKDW

Regarding `CC(=O)N[C@H]1[C@H](OCCCCCNC(=O)CCCC[C@@H]2SC[C@@H]3NC(=O)N[C@@H]32)O[C@H](CO)[C@@H](O[C@@H]2O[C@H](CO[C@]3(C(=O)O)C[C@H](OC(C)=O)[C@@H](NC(C)=O)[C@H]([C@H](O)[C@H](O)CO)O3)[C@H](O)[C@H](O)[C@H]2O)[C@@H]1O` [compound 6], the “glycan microarray, fluorescence” value was “specific for 4-O-acetylated Neu5Ac and does not depend on linkage type”.

For the origin of these results see PMC10600165 (Nature Communications, 2023).
